# According to patent US20160045687A1, “NASAL ADMINISTRATION” (OPTINOSE AS, priority 2013, published 2016):
# Structures can show the parent of a compound that is named as a salt. Where two headings read alike, the source gives them in different places.
# Legend:
# [1] = cited from earlier work
# [2] = test system: episodic migraine; details: continuous carbon dioxide infusion; cited from earlier work
# [3] = test system: cultured rat trigeminal ganglion cells; details: carbon dioxide treatment of cultures under isohydric conditions; cited from earlier work
# [4] = test system: chronic rhinosinusitis (CRS) with nasal polyps; test: Example #10: 3-month placebo controlled study of fluticasone with Breath Powered liquid device; type: in vivo, human
# [5] = test system: post-surgical recalcitrant CRS without polyps; test: Example #11: placebo controlled study of fluticasone with Breath Powered liquid device; type: in vivo, human; details: 12 weeks
# Description: Using the same drug-device combination product as Example #10, a small placebo controlled study (N=20) was performed in patients with post-surgical recalcitrant CRS without polyps, producing clinically significant improvements on both objective measures and subjective symptoms.
# [6] = Fluticasone bioavailability at higher Breath Powered doses; type: in vivo, human; details: 400 ug or 800 ug twice daily as compared to 200 ug daily conventionally
# [7] = test system: single migraine attack; test: Example #1: headache relief after 16 mg intranasal Breath Powered sumatriptan vs 100 mg oral sumatriptan; type: in vivo, human
# Excerpt: The purpose of this study was to study the onset of headache relief following a dose of sumatriptan. The study population included 436 subjects.
# Headache relief is defined as a reduction from moderate (grade 2) or severe (grade 3) to none (grade 0) or mild (grade 1) pain.
# [8] = Example #3: sumatriptan PK in nitroglycerin (GTN)-induced migraine vs healthy subjects; details: human, in vivo, Breath Powered device
# [9] = test system: migraine headaches; test: Examples #4/#7: double-blind crossover head-to-head study, Breath Powered sumatriptan vs 100 mg tablet, blinded pooled data; type: in vivo, human; details: 16 mg nasal with placebo tablet; scenario inferred from blinded data
# Description: The study is a cross-over design where each patient enrolled will treat headaches with each of the treatments. Specifically, patients will treat up to 5 headaches with a treatment and then cross over to treat up to 5 headaches with the other. With each headache, the patient uses the device and takes a tablet, only one of which will be active. From data on over 400 headaches, as yet unblinded, the results obtained at the 30 min timepoint (headache relief 30 minutes after taking medication) for moderate or severe headaches is 54%.
# One set of data include blinded head-to-head (H2H) results. They generally show a high response rate In blinded data, i.e., a reduction from severe/moderate migraine or mild or none.
smiles,measurement,setting,value
"CN1C[C@H](C(=O)N[C@]2(C)O[C@@]3(O)[C@@H]4CCCN4C(=O)[C@H](Cc4ccccc4)N3C2=O)C[C@@H]2c3cccc4[nH]cc(c34)C[C@H]21 [DHE, dihydroergotamine mesylate]",bioavailability,[1]; administered intranasally,~40%
same,bioavailability,[1]; given orally,less than 1%
O=C=O [carbon dioxide],2-hour pain free response,[2],25.0%
same,effect on CGRP secretion,[3],"significantly repressed the stimulatory effects of KCI, capsaicin, and nitric oxide on CGRP secretion"
C[C@@H]1C[C@H]2[C@@H]3C[C@H](F)C4=CC(=O)C=C[C@]4(C)[C@@]3(F)[C@@H](O)C[C@]2(C)[C@@]1(O)C(=O)SCF [fluticasone],tolerability,"[4]; 400 μg b.i.d., 3 months",well tolerated
same,subjects with complete elimination of the polyps,"[4]; 400 μg b.i.d., after 3 months",~20%
same,proportion of subjects with improvement in summed polyp score,[4]; 4 weeks,22%
same,proportion of subjects with improvement in summed polyp score,[4]; 8 weeks,43%
same,proportion of subjects with improvement in summed polyp score,[4]; 12 weeks,57%
same,change in polyp score,[4]; after 12 weeks,−0.98
same,summed polyp score,"[4]; after 12 weeks, baseline 2.8",1.8
same,endoscopy score for edema (median scores),[5],−4.0
same,bioavailability,[6],no significantly greater bioavailability
CNS(=O)(=O)Cc1ccc2[nH]cc(CCN(C)C)c2c1 [sumatriptan],response rate (headache relief) at 30 minutes,[7]; 16 mg of sumatriptan in the Breath Powered device and oral tablet placebo,67%
same,response rate (headache relief) at 30 minutes,[7]; 100 mg of sumatriptan orally with the placebo device,39%
same,bioavailability,"[8]; other: intranasal powder, 7.5 mg delivered to the side of the migraine during a GTN attack in migraineurs",27%
same,Cmax,"[8]; other: intranasal, 7.5 mg",11 ng/mL
same,suggested response rate at 30 minutes,[9],70%
CN(C)CCc1c[nH]c2ccc(C[C@H]3COC(=O)N3)cc12 [zolmitriptan],nasal fraction of the total absorption,[1]; conventional nasal spray,approximately 30%
